Data taken from the OligoGym collection.
Where “and” joins values, the source holds several entries; their conditions need not be identical. Identical values can stand only once. HELM strings list units from the 5' end as sugar, base in round brackets, then linkage (d deoxyribose, r ribose, m 2'-O-methyl, p phosphodiester). Methylation of C is not given here. [moe] = 2'-O-(2-methoxyethyl) (MOE); [cEt] = constrained ethyl (cEt); [sp] = phosphorothioate linkage

Target: HBV
Conditions: ASO

Row | Substance | target mRNA inhibition (HepG2, 0.07 µM) | also measured
1 | RNA1{[moe](G)[sp].[cEt](G)[sp].d(T)[sp].d(G)[sp].d(A)[sp].d(A)[sp].d(G)[sp].d(C)[sp].d(G)[sp].d(A)[sp].d(A)[sp].d(G)[sp].[cEt](T)[sp].[moe](G)[sp].[cEt](C)[sp].[moe](A)}$$$$V2.0 | 80% and 81% | target mRNA inhibition (HepG2, 0.0092593 µM): 22%; target mRNA inhibition (HepG2, 0.0277778 µM): 51%; target mRNA inhibition (HepG2, 0.0833333 µM): 82%; target mRNA inhibition (HepG2, 0.25 µM): 88%
2 | RNA1{[moe](G)[sp].[cEt](T)[sp].[cEt](C)[sp].d(C)[sp].d(A)[sp].d(C)[sp].d(C)[sp].d(A)[sp].d(C)[sp].d(G)[sp].d(A)[sp].d(G)[sp].d(T)[sp].[cEt](C)[sp].[cEt](T)[sp].[moe](A)}$$$$V2.0 | 55% and 56% | –
3 | RNA1{[moe](G)[sp].[cEt](T)[sp].[cEt](T)[sp].d(C)[sp].d(C)[sp].d(G)[sp].d(C)[sp].d(A)[sp].d(G)[sp].d(T)[sp].d(A)[sp].d(T)[sp].d(G)[sp].[cEt](G)[sp].[cEt](A)[sp].[moe](T)}$$$$V2.0 | 69% and 72% | –
4 | RNA1{[moe](G)[sp].[cEt](T)[sp].d(T)[sp].d(C)[sp].d(C)[sp].d(G)[sp].d(C)[sp].d(A)[sp].d(G)[sp].d(T)[sp].d(A)[sp].d(T)[sp].[cEt](G)[sp].[moe](G)[sp].[cEt](A)[sp].[moe](T)}$$$$V2.0 | 76% and 53% | –
5 | RNA1{[moe](G)[sp].[moe](A)[sp].[moe](A)[sp].[moe](C)[sp].[moe](T)[sp].d(G)[sp].d(G)[sp].d(A)[sp].d(G)[sp].d(C)[sp].d(C)[sp].d(A)[sp].d(C)[sp].d(C)[sp].[moe](A)[sp].[moe](G)}$$$$V2.0 | 46% and 39% | –
6 | RNA1{[moe](G)[sp].[moe](A)[sp].[moe](A)[sp].[moe](G)[sp].[moe](C)[sp].[moe](G)[sp].d(A)[sp].d(A)[sp].d(G)[sp].d(T)[sp].d(G)[sp].d(C)[sp].d(A)[sp].d(C)[sp].d(A)[sp].[moe](C)[sp].[moe](G)}$$$$V2.0 | 87% and 66% | –
7 | RNA1{[moe](G)[sp].[moe](A)[sp].[moe](A)[sp].[moe](G)[sp].[moe](T)[sp].[moe](C)[sp].d(C)[sp].d(A)[sp].d(C)[sp].d(C)[sp].d(A)[sp].d(C)[sp].d(G)[sp].d(A)[sp].d(G)[sp].[moe](T)[sp].[moe](C)}$$$$V2.0 | 42% | –
8 | RNA1{[moe](G)[sp].[moe](A)[sp].[moe](A)[sp].[moe](G)[sp].[moe](T)[sp].d(C)[sp].d(C)[sp].d(A)[sp].d(C)[sp].d(C)[sp].d(A)[sp].d(C)[sp].d(G)[sp].d(A)[sp].[moe](G)[sp].[moe](T)[sp].[moe](C)}$$$$V2.0 | 5% and 2% | –
9 | RNA1{[moe](G)[sp].[moe](A)[sp].[moe](A)[sp].d(C)[sp].d(C)[sp].d(A)[sp].d(C)[sp].d(T)[sp].d(G)[sp].d(A)[sp].d(A)[sp].d(C)[sp].[moe](A)[sp].[moe](A)[sp].[moe](A)[sp].[moe](T)[sp].[moe](G)}$$$$V2.0 | 39% and 47% | –
10 | RNA1{[moe](G)[sp].[moe](A)[sp].[moe](A)[sp].d(C)[sp].d(C)[sp].d(A)[sp].d(C)[sp].d(T)[sp].d(G)[sp].d(A)[sp].d(A)[sp].d(C)[sp].[moe](A)[sp].[moe](A)[sp].[moe](A)[sp].[moe](T)}$$$$V2.0 | 46% and 42% | –
11 | RNA1{[moe](G)[sp].[moe](A)[sp].[moe](A)[sp].d(C)[sp].d(C)[sp].d(A)[sp].d(C)[sp].d(T)[sp].d(G)[sp].d(A)[sp].d(A)[sp].d(C)[sp].d(A)[sp].[cEt](A)[sp].[cEt](A)[sp].[cEt](T)}$$$$V2.0 | 30% and 48% | –
12 | RNA1{[moe](G)[sp].[moe](A)[sp].[moe](A)[sp].d(C)[sp].d(T)[sp].d(G)[sp].d(G)[sp].d(A)[sp].d(G)[sp].d(C)[sp].d(C)[sp].d(A)[sp].d(C)[sp].[cEt](C)[sp].[cEt](A)[sp].[cEt](G)}$$$$V2.0 | 59% and 58% | –
13 | RNA1{[moe](G)[sp].[moe](A)[sp].[moe](A)[sp].d(G)[sp].d(C)[sp].d(G)[sp].d(A)[sp].d(A)[sp].d(G)[sp].d(T)[sp].d(G)[sp].d(C)[sp].[moe](A)[sp].[moe](C)[sp].[moe](A)[sp].[moe](C)}$$$$V2.0 | 52% and 50% | –
14 | RNA1{[moe](G)[sp].[moe](A)[sp].[moe](A)[sp].d(G)[sp].d(C)[sp].d(G)[sp].d(A)[sp].d(A)[sp].d(G)[sp].d(T)[sp].d(G)[sp].d(C)[sp].d(A)[sp].[cEt](C)[sp].[cEt](A)[sp].[cEt](C)}$$$$V2.0 | 67% | –
15 | RNA1{[moe](G)[sp].[moe](A)[sp].[moe](G)[sp].[moe](G)[sp].[moe](T)[sp].[moe](G)[sp].d(A)[sp].d(A)[sp].d(G)[sp].d(C)[sp].d(G)[sp].d(A)[sp].d(A)[sp].d(G)[sp].d(T)[sp].[moe](G)[sp].[moe](C)}$$$$V2.0 | 75% and 52% | –
16 | RNA1{[moe](G)[sp].[moe](A)[sp].[moe](G)[sp].[moe](G)[sp].d(C)[sp].d(A)[sp].d(T)[sp].d(A)[sp].d(G)[sp].d(C)[sp].d(A)[sp].d(G)[sp].d(C)[sp].[moe](A)[sp].[moe](G)[sp].[moe](G)[sp].[moe](A)}$$$$V2.0 | 35% | –
17 | RNA1{[moe](G)[sp].[moe](A)[sp].[moe](G)[sp].[moe](T)[sp].[moe](T)[sp].d(C)[sp].d(C)[sp].d(G)[sp].d(C)[sp].d(A)[sp].d(G)[sp].d(T)[sp].d(A)[sp].d(T)[sp].[moe](G)[sp].[moe](G)[sp].[moe](A)}$$$$V2.0 | 75% and 56% | –
18 | RNA1{[moe](G)[sp].[moe](A)[sp].[moe](G)[sp].d(A)[sp].d(A)[sp].d(G)[sp].d(T)[sp].d(C)[sp].d(C)[sp].d(A)[sp].d(C)[sp].d(C)[sp].d(A)[sp].[cEt](C)[sp].[cEt](G)[sp].[cEt](A)}$$$$V2.0 | 60% and 71% | –
19 | RNA1{[moe](G)[sp].[moe](A)[sp].[moe](G)[sp].d(A)[sp].d(G)[sp].d(A)[sp].d(A)[sp].d(G)[sp].d(T)[sp].d(C)[sp].d(C)[sp].d(A)[sp].d(C)[sp].[cEt](C)[sp].[cEt](A)[sp].[cEt](C)}$$$$V2.0 | 38% and 23% | –
20 | RNA1{[moe](G)[sp].[moe](A)[sp].[moe](G)[sp].d(G)[sp].d(C)[sp].d(A)[sp].d(T)[sp].d(A)[sp].d(G)[sp].d(C)[sp].d(A)[sp].d(G)[sp].[moe](C)[sp].[moe](A)[sp].[moe](G)[sp].[moe](G)[sp].[moe](A)}$$$$V2.0 | 66% and 57% | –
